{"source": "patent US12329876B2", "about": "“Porous bioresorbable radiopaque embolic microspheres for drug delivery” (REVA Medical, LLC, priority 2018, dated 2025)", "assay": "degradation kinetics (mass loss) of copolymers and of microbeads from copolymer blends (FIGS. 12A, 12B)", "type": "physicochemical", "description": "The illustrative examples of achievable degradation profile are presented on FIGS. 12A and 12B.\nAdjusting ratio of iodinated structural component (PrD-diI2DAT) and rubbery component (PEG400 or PEG1000), ratio of Carbonate to Oxalate bonds in single copolymer or utilizing blends of copolymers, a wide spectrum of degradation profiles could be achieved, including multi-step degradation."}
{"substance": "Copolymer 50% PrD-di I2DAT-co-50% PEG1K with 100% carbonate bonds [Formula #4]", "values": [{"measurement": "degradation kinetic (mass loss), result in words", "value": "slow degradation"}]}
